Results as given in patent US8124580B2, “Apolipoprotein A1 mimetics and uses thereof” (Trustees of Tufts College, priority 2004, dated 2012).
“Also recorded” adds a separate entry of the source. [ ]: non-standard residue; d: D form.

Tests used:
[1] = test system: apoE-null mice; assay: Atherosclerosis in apoE-null mice, oral in drinking water; format: in vivo; settings: aortic root, 1.6 mg/day orally, 6 weeks; for decrease in lesion area as compared to water control: p<0.02
Protocol: In this study, the comparative effect of Rev-D4F, D-4F, and L-4F mimetic peptides on atherosclerosis in apoE-null mice was measured. Four groups of apoE-null mice (4 weeks old, n=15) were fed a chow diet, and administered water (control), Rev-D4F, D-4F, or L-4F mimetic peptides (1.6 mg/day, n=12/group) orally in drinking water for 6 weeks. Quantitative morphometry of aortic root cross sections stained with oil-red O was performed with NIH software.

[2] = molecular target: T1, ATP-binding cassette protein A1 (ABCA1) (Homo sapiens, UniProt O95477); assay: ABCA1-dependent cholesterol efflux from ABCA1-transfected cells; format: cell-based
T1 construct: expressed in transfected cells
Protocol: (§1) The effect of Rev-D4F on the cholesterol efflux in a […] was examined. Scavenger receptor class B type I (“SR-BI”) is a receptor for HDL normally expressed on the surface of the liver cells. Tritiated cholesterol was added to cells transfected with SR-BI, with wild type Apo A-I, L4F peptide, D4F peptide, or Rev-D4F peptidomimetic, and the percentage of cholesterol efflux was determined.
The effect of Rev-D4F on the cholesterol efflux in a manner dependent on ATP-binding cassette protein A1 (“ABCA1”) was also examined using the same methodology as for SR-BI, except that ABCA1 was transfected.

[3] = test system: monocyte chemotactic protein-1 (MCP-1) mRNA; assay: MCP-1 mRNA expression in endothelial cells; format: cell-based
Text: This study analyzed the effects of Rev-D4F, D-4F, and L-4F mimetic peptides to reduce the levels of an […] marker, monocyte chemotactic protein-1 (MCP-1). Based upon levels of MCP-1 mRNA, all three peptidomimetics reduced the amount of MCP-1.

[4] = molecular target: T2, Scavenger receptor class B type I (SR-BI) (Homo sapiens, UniProt Q8WTV0); assay: SR-BI-dependent cholesterol efflux from SR-BI-transfected cells; format: cell-based
T2 construct: expressed in transfected cells
T2 sequence (Q8WTV0 1-509 isoform Q8WTV0-2): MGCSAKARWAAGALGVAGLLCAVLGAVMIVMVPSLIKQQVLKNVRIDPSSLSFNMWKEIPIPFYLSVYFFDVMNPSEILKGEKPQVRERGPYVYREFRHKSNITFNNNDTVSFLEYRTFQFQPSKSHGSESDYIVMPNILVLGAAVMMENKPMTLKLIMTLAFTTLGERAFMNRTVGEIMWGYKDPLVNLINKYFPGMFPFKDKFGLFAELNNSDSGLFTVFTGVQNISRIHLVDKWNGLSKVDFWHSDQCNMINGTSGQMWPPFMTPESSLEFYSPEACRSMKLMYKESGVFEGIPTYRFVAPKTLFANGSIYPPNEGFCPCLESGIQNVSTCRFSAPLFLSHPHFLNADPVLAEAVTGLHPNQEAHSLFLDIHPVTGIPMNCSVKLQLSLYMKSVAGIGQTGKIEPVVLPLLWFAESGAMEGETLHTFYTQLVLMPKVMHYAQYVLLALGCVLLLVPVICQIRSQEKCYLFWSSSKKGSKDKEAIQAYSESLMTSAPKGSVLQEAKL
Protocol: as §1

[5] = test system: human aortic endothelial cells; assay: Lipid peroxidation caused by human aortic endothelial cells (TBARS); format: cell-based; settings: FIG. 5; for lipid peroxidation (TBARS) caused by endothelial cells: human aortic endothelial cells as oxidant
Text: (§2) The present study measured the ability of Rev-D4F, D-4F, and L-4F mimetic peptides to inhibit lipid peroxidation caused by human aortic endothelial cells and copper(II) sulfate, based upon inhibiting an increase in concentrations of thiobarbituric acid-reactive substances (TBARS).

[6] = test system: lipid peroxidation caused by copper(II) sulfate; assay: Lipid peroxidation caused by copper(II) sulfate (TBARS); format: biochemical; settings: copper(II) sulfate as oxidant, FIG. 6
Text: as §2

[7] = in vivo; cited from earlier work
[8] = test system: LDL receptor-null mice; settings: oral administration; cited from earlier work
[9] = Association with DMPC phospholipid, gel filtration chromatography; format: binding; settings: FIGS. 2A-D
Text: To assess the ability of purified Rev-D4F to interact with phospholipids, the purified peptidomimetic was mixed with 1,2-dimyristoyl-sn-glycero-3-phosphocholine (DMPC), which is a component of membrane lipid bi-layer with which cholesterol is associated, and fractionated by gel filtration chromatography.

[10] = test system: LDL; settings: cited from earlier work; for LDL oxidation: previously shown
[11] = test system: LDL-induced monocyte chemotactic activity; settings: previously shown; cited from earlier work

T1 sequence (O95477 whole entry, species assumed): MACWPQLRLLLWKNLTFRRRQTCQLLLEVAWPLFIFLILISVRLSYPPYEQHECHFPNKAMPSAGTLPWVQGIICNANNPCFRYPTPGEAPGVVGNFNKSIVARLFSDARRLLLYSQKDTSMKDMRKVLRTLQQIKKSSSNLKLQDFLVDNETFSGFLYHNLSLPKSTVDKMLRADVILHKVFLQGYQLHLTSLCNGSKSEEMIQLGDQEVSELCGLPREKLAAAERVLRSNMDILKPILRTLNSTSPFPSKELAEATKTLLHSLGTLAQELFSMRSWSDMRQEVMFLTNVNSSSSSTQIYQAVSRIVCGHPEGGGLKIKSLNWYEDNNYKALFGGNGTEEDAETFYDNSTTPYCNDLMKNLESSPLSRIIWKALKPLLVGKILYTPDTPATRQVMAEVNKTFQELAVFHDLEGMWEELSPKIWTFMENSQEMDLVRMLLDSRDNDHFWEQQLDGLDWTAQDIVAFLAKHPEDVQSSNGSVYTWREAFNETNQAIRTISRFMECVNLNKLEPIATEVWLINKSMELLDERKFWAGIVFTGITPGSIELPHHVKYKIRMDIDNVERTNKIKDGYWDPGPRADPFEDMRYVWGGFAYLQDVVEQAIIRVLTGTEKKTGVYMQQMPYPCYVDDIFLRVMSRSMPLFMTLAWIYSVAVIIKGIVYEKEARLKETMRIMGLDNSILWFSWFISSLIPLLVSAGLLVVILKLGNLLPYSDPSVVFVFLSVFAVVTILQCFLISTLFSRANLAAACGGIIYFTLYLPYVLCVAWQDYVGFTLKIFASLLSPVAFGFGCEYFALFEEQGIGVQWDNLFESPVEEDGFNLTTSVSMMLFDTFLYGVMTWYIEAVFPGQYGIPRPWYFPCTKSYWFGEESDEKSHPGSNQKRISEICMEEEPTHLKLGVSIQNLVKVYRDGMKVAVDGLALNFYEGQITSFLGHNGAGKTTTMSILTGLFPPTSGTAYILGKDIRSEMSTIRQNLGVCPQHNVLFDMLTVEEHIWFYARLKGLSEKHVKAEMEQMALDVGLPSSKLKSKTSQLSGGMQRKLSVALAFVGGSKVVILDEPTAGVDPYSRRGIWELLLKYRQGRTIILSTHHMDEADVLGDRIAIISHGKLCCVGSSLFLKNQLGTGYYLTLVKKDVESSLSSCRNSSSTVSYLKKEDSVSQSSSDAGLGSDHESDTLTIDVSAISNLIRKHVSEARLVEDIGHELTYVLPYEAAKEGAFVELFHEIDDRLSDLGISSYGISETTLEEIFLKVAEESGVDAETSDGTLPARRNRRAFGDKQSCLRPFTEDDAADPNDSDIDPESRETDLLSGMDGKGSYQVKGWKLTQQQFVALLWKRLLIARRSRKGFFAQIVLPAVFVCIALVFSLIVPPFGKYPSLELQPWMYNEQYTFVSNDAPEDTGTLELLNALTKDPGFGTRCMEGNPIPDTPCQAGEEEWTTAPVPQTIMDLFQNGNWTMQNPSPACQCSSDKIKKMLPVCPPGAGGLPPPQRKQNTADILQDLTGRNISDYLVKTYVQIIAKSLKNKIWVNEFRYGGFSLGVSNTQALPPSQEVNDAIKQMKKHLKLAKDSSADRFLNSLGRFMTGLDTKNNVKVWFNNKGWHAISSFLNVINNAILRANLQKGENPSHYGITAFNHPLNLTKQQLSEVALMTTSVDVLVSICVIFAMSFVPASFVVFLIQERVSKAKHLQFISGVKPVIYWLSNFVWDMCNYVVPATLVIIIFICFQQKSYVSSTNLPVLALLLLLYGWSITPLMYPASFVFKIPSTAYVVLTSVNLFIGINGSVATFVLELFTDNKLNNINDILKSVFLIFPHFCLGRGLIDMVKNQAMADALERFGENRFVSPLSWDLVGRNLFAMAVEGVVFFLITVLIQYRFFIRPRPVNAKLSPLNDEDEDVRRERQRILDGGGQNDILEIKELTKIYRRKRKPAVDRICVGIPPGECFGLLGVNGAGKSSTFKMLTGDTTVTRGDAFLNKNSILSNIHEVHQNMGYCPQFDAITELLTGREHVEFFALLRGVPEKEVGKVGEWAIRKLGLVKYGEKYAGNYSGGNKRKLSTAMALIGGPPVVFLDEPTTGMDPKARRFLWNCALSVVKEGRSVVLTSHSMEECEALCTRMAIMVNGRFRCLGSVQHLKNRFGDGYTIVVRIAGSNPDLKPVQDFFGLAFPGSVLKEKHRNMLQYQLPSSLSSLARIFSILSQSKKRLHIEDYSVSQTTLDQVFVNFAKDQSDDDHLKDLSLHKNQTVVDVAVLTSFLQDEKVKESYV

efficiency in promoting ABCA1-dependent cholesterol efflux compared to Apo A-I ([2]; per mole basis) | efficiency in promoting ABCA1-dependent cholesterol efflux compared to Apo A-I ([2]; per weight basis) | efficiency in promoting SR-BI-dependent cholesterol efflux compared to Apo A-I ([4]; per mole basis) | efficiency in promoting SR-BI-dependent cholesterol efflux compared to Apo A-I ([4]; per weight basis) | Substance | decrease in lesion area as compared to water control [1] [%] | MCP-1 mRNA level ([3]; FIG. 7) | lipid peroxidation (TBARS) caused by endothelial cells [5] | lipid peroxidation (TBARS) caused by copper sulfate [6] | stability upon oral administration [7] | reduction of atherosclerotic lesions [8] [%] | spontaneous association with DMPC (co-elution with phospholipid) [9] | LDL oxidation [10] | LDL-induced monocyte chemotactic activity [11] | effect on atherosclerotic lesions [1] | LDL and phospholipid oxidation ([10]; mechanisms independent of HDL-mediated processes) | MCP-1 mRNA level ([3]; FIG. 7, listed as Rev D-4-F) | inhibition in lipid peroxidation compared with D-4F ([5]; endothelial cells as oxidant) | lipid peroxidation (TBARS) caused by endothelial cells ([5]; listed as Rev D-4-F) | inhibition in lipid peroxidation compared with D-4F [6] | lipid peroxidation (TBARS) caused by copper sulfate ([6]; listed as Rev D-4-F)
less efficient | more efficient | less efficient | more efficient | Ac-D-W-F-K-A-F-Y-D-K-V-A-E-K-F-K-E-A-F-NH2 [D-4F] (Ac-[dD][dW][dF][dK][dA][dF][dY][dD][dK][dV][dA][dE][dK][dF][dK][dE][dA][dF]-NH2) | 33 | reduced; also recorded: inhibit | significantly decreased; also recorded: inhibit | significantly decreased; also recorded: inhibit | stable | ~80 | associated spontaneously | block | block | – | – | – | – | – | – | –
less efficient | more efficient | less efficient | more efficient | Ac-D-W-F-K-A-F-Y-D-K-V-A-E-K-F-K-E-A-F-NH2 [L-4F] (Ac-DWFKAFYDKVAEKFKEAF-NH2) | – | reduced; also recorded: inhibit | significantly decreased; also recorded: inhibit | significantly decreased; also recorded: inhibit | – | – | associated spontaneously | block | block | no effect | inhibits | – | – | – | – | –
– | – | – | – | Apo A-I: the major HDL apoprotein; intact/wild type protein used as comparator | – | – | – | – | – | – | only certain portions | – | – | – | – | – | – | – | – | –

Substance | efficiency in promoting ABCA1-dependent cholesterol efflux compared to Apo A-I ([2]; per mole basis) | efficiency in promoting ABCA1-dependent cholesterol efflux compared to Apo A-I ([2]; per weight basis) | efficiency in promoting SR-BI-dependent cholesterol efflux compared to Apo A-I ([4]; per mole basis) | efficiency in promoting SR-BI-dependent cholesterol efflux compared to Apo A-I ([4]; per weight basis) | decrease in lesion area as compared to water control [1] [%] | MCP-1 mRNA level ([3]; FIG. 7) | lipid peroxidation (TBARS) caused by endothelial cells [5] | lipid peroxidation (TBARS) caused by copper sulfate [6] | stability upon oral administration [7] | reduction of atherosclerotic lesions [8] [%] | spontaneous association with DMPC (co-elution with phospholipid) [9] | LDL oxidation [10] | LDL-induced monocyte chemotactic activity [11] | effect on atherosclerotic lesions [1] | LDL and phospholipid oxidation ([10]; mechanisms independent of HDL-mediated processes) | MCP-1 mRNA level ([3]; FIG. 7, listed as Rev D-4-F) | inhibition in lipid peroxidation compared with D-4F ([5]; endothelial cells as oxidant) | lipid peroxidation (TBARS) caused by endothelial cells ([5]; listed as Rev D-4-F) | inhibition in lipid peroxidation compared with D-4F [6] | lipid peroxidation (TBARS) caused by copper sulfate ([6]; listed as Rev D-4-F)
Ac-F-A-E-K-F-K-E-A-V-K-D-Y-F-A-K-F-W-D-NH2 (Ac-[dF][dA][dE][dK][dF][dK][dE][dA][dV][dK][dD][dY][dF][dA][dK][dF][dW][dD]-NH2; SMILES CC(=O)N[C@H](Cc1ccccc1)C(=O)N[C@H](C)C(=O)N[C@H](CCC(=O)O)C(=O)N[C@H](CCCCN)C(=O)N[C@H](Cc1ccccc1)C(=O)N[C@H](CCCCN)C(=O)N[C@H](CCC(=O)O)C(=O)N[C@H](C)C(=O)N[C@@H](C(=O)N[C@H](CCCCN)C(=O)N[C@H](CC(=O)O)C(=O)N[C@H](Cc1ccc(O)cc1)C(=O)N[C@H](Cc1ccccc1)C(=O)N[C@H](C)C(=O)N[C@H](CCCCN)C(=O)N[C@H](Cc1ccccc1)C(=O)N[C@H](Cc1c[nH]c2ccccc12)C(=O)N[C@H](CC(=O)O)C(N)=O)C(C)C) [Rev-D4F] | less efficient | more efficient | less efficient | more efficient | 46 | reduced | significantly decreased | significantly decreased | – | – | associated spontaneously | – | – | – | – | inhibit | significantly greater | inhibit | significantly greater | inhibit
